From patent US5250518A, “O-methyl derivatives of azithromycin A” (priority 1990, dated 1993)
In brackets after ≈: the same amount, converted by molar mass.

How the values were obtained:
ATCC 6538P = assay: Antibacterial in vitro activity in comparison with azithromycin (Table 3); assay type: cell-based, Staphilococcus aureus
Excerpt: (§1) In Table 3 there are represented in vitro tests of 6-O-methyl- (Ii), 6,11-di-O-methyl- (Ij), 11-O-methyl- (Ik) and 6,11,4"-tri-O-methyl-azithromycin A (II) in comparison with azithromycin.

ATCC 10240 = assay: as above; assay type: cell-based; details: Brain hearth Bouillon, 24-48 hours, 37° C., inoculum 10^-5 -10^-6 cfu/mL
Excerpt: as §1

ATCC 8043 = assay: as above; assay type: cell-based; details: Staphylococcus faecalis, ATCC8043; Brain hearth Bouillon, 24-48 hours, 37° C., inoculum 10^-5 -10^-6 cfu/mL
Excerpt: as §1

[1] = tested on: Bacillus cereus NCTC 10320; assay: as above; assay type: cell-based; details: NCTC10320, Brain hearth Bouillon, 24-48 hours, 37° C., inoculum 10^-5 -10^-6 cfu/mL
Excerpt: as §1

[2] = tested on: Bacillus pumilus NCTC 8241; assay: as above; assay type: cell-based; details: NCTC8241, Brain hearth Bouillon, 24-48 hours, 37° C., inoculum 10^-5 -10^-6 cfu/mL
Excerpt: as §1

[3] = tested on: Bacillus subtilis NCTC 8241; assay: as above; assay type: cell-based; details: Bacillus subtilis, NCTC8241; Brain hearth Bouillon, 24-48 hours, 37° C., inoculum 10^-5 -10^-6 cfu/mL
Excerpt: as §1

[4] = tested on: Corynebacterium xerosis NCTC 9755; assay: as above; assay type: cell-based; details: NCTC9755, Brain hearth Bouillon, 24-48 hours, 37° C., inoculum 10^-5 -10^-6 cfu/mL
Excerpt: as §1

[5] = tested on: Escherichia coli ATCC 10536; assay: as above; assay type: cell-based; details: ATCC10536, Brain hearth Bouillon, 24-48 hours, 37° C., inoculum 10^-5 -10^-6 cfu/mL
Excerpt: as §1

[6] = tested on: Pseudomonas aeruginosa NCTC 10490; assay: as above; assay type: cell-based; details: NCTC10490, Brain hearth Bouillon, 24-48 hours, 37° C., inoculum 10^-5 -10^-6 cfu/mL
Excerpt: as §1

Sarcina lutea ATCC 9341 = assay: as above; assay type: cell-based; details: Micrococcus luteus, ATCC9341; Brain hearth Bouillon, 24-48 hours, 37° C., inoculum 10^-5 -10^-6 cfu/mL
Excerpt: as §1

[7] = tested on: Staphylococcus epidermidis ATCC 12228; assay: as above; assay type: cell-based; details: ATCC12228, Brain hearth Bouillon, 24-48 hours, 37° C., inoculum 10^-5 -10^-6 cfu/mL
Excerpt: as §1

[8] = versus erythromycin A; cited from earlier work
[9] = tested on: gram-negative microorganisms; details: in comparison with the parent antibiotic (erythromycin A); cited from earlier work
[10] = in comparison with the parent antibiotic (erythromycin A); cited from earlier work
[11] = tested on: gram-positive microorganisms; details: in comparison to erythromycin A; cited from earlier work

| Structure (SMILES) | MIC (ATCC 6538P) [µg/mL] | MIC (ATCC 10240) [µg/mL] | MIC (ATCC 8043) [µg/mL] | MIC [1] [µg/mL] | MIC [2] [µg/mL] | MIC [3] [µg/mL] | MIC [4] [µg/mL] | MIC [5] [µg/mL] | MIC [6] [µg/mL] | MIC (Sarcina lutea ATCC 9341) [µg/mL] | MIC [7] [µg/mL] | stability in acidic medium in comparison with the parent antibiotic [8] | in vitro activity against gram-negative microorganisms [9] | concentration in the tissues [10] | in vitro activity against gram-positive microorganisms [11] |
| --- | --- | --- | --- | --- | --- | --- | --- | --- | --- | --- | --- | --- | --- | --- | --- |
| CC[C@H]1OC(=O)[C@H](C)[C@@H](O[C@H]2C[C@@](C)(OC)[C@@H](O)[C@H](C)O2)[C@H](C)[C@@H](O[C@@H]2O[C@H](C)C[C@H](N(C)C)[C@H]2O)[C@](C)(O)C[C@@H](C)CN(C)[C@H](C)[C@@H](O)[C@]1(C)O [azithromycin, N-methyl-11-aza-10-deoxo-10-dihydroerythromycin A (9-deoxo-9a-aza-9a-methyl-9a-homoerythromycin A)] | 1.56 (≈ 2.08 µM) | 0.39 (≈ 0.521 µM) | 0.05 (≈ 0.0668 µM) | 0.39 (≈ 0.521 µM) | 0.2 (≈ 0.267 µM) | 0.39 (≈ 0.521 µM) | 6.25 (≈ 8.34 µM) | 0.78 (≈ 1.04 µM) | 100 (≈ 134 µM) | 0.05 (≈ 0.0668 µM) | 0.1 (≈ 0.134 µM) | improved stability in acidic medium | improved in vitro activity against gram-negative microorganisms | significantly higher conncentration in the tissues | – |
| CC[C@H]1OC(=O)[C@H](C)[C@@H](O[C@H]2C[C@@](C)(OC)[C@@H](O)[C@H](C)O2)[C@H](C)[C@@H](O[C@@H]2O[C@H](C)C[C@H](N(C)C)[C@H]2O)[C@](C)(OC)C[C@@H](C)C(=O)[C@H](C)[C@@H](O)[C@]1(C)O [clarithromycin, 6-O-methyl-erythromycin A] | – | – | – | – | – | – | – | – | – | – | – | – | – | – | improved in vitro activity against gram-positive microorganisms |
